The subject of this experiment is hyperactive bladder (PS/KCl). Description: Continuous CMG, hyperactive bladder induced by PS/KCl (Examples 5-6). The note with it: for Amplitude / Compliance / ICI / PT: N=6. In kind it is in vivo, female Sprague-Dawley rats. On the procedure:
This was followed by instillation of liposomes (LP) in saline (in the case of the former) or LP/KCl.
Intravesical bladder pressure was recorded via a transurethral catheter in adult female Sprague-Dawley rats anesthetized with urethane (1.2 g/kg) administered by subcutaneous injection (sc). Some animals were pretreated with capsaicin (125 mg/kg, sc) four days prior to the experiments. […] Parameters measured included intercontraction interval (ICI), amplitude of bladder contractions, compliance and micturition pressure threshold (PT).
Animal Preparation. Thirty-four female Sprague-Dawley rats (250-300 g) were used in this study. Animals were anesthetized with urethane (1.2 g/kg, sc). Body temperature was maintained in the physiological range using a heating lamp.
Cystometrogram (CMG). A transurethral bladder catheter (PE-50) was connected via a three-way stopcock to a pressure transducer and to a syringe pump. This was used to record intravesical pressure and to infuse solutions into the bladder. A control CMG was performed by slowly filling the bladder with saline (0.04 ml/min) to elicit repetitive voiding. The parameters recorded were amplitude, PT, compliance, and ICI of reflex bladder contractions. Measurements in each animal represented the average of 3 to 5 bladder contractions.
Induction of a Hyperactive Bladder. […] L. Cheng et al., 1993, Am. J. Physiol. 265:R132-138). The experimental design is illustrated in FIG. 7. The KCl concentration used was within the range of concentrations present in normal rat urine (M. Ohnishi et al., 2001, Toxicol. Appl. Pharmacol. 174:122-129).
Preparation of Liposomes (LP). LP were prepared as described by Kirby and Gregoriadis (C. J. Kirby and G. Gregoriadia, 1984, “A simple procedure for preparing liposomes capable of high encapsulation efficiency under mild conditions,” Liposome Technology; G. Gregnoriadis, Ed., C.R.C. Press, Inc., Boca Raton, Fla., Vol. 1, p. 20). Briefly, LP were constructed as a 2:1 molar ratio of L-α-phosphatidylcholine and cholesterol (Sigma Chemical Co., St. Louis, Mo.) to a final lipid concentration of 2 mg/ml in saline. Lipids in chloroform were dried down together in the proper ratio under nitrogen. The residues were reconstituted as LP in saline or 500 mM KCl by intense sonication.
Statistical Analyis. Statistical analyses were performed using Student's t test for paired or unpaired data, where applicable. A p-value less than 0.05 was considered significant. All data are expressed in Example 2 (below) as means±S.E.

Where [1] appears, read: Table 1B series: saline, KCl 500 mM 1 h, PS/KCl 1 h, LP/KCl 2 h.
Where [2] appears, read: Table 1C series: saline, KCl 500 mM 1 h, PS/KCl 1 h.
The mark [3] stands for this setting: Table 1C: KCl infusion 2 h after PS/KCl.
Where [4] appears, read: infusion after PS/KCl, vs pretreatment.

“Also recorded” adds a separate entry of the source.

Consider `[Cl-].[K+]` [KCl], for which, where the note is “PS/KCl series, vs pretreatment”, the “PT change” value is given as “significantly increased”. In addition, under setting [1], the Amplitude is listed as 28.8 ± 1.2 cm H2O, the Compliance was found to be 0.284±0.028 ml/cm H2O, the ICI is 15.8 ± 1.4 min and the PT turned out to be 8.2 ± 0.9 cm H2O. Under setting [2], the Amplitude was 28.8 ± 2.2 cm H2O, the Compliance came out at 0.226±0.050 ml/cm H2O, the ICI came out at 16.3 ± 1.5 min and the PT was found to be 6.8 ± 0.6 cm H2O. Under setting [3], this compound had an Amplitude of 33.0 ± 2.3 cm H2O, a Compliance of 0.043±0.014 ml/cm H2O, an ICI of 2.9 ± 0.5 min and a PT of 11.8 ± 1.6 cm H2O. For the same compound, for the setting “infused alone: PS 10 mg/ml or KCl 500 mM”, the “change of ICI / CMGs” value is on record as “not changed; also recorded: did not significantly change the CMGs”. In addition, under setting [4], the “Compliance change” value was “further reduced” and the “ICI change” value is reported as “not significantly changed; also recorded: did not alter the ICI for periods as long as 120 min”.

Source of the values: patent publication US8110217B2, “Sphingomyelin liposomes for the treatment of hyperactive bladder disorders” (priority 2001, dated 2012).
